Consider twelve compounds from US9850283B2, “Macrocyclic inhibitors of the PD-1/PD-L1 and CD80(B7-1)/PD-L1 protein/protein interactions” (BRISTOL-MYERS SQUIBB COMPANY, priority 2013, dated 2017).

Structures are written as SMILES. Read-outs that look alike come from different tables or passages of the source. Starred links: 1 amine or outer side, 2 acyl side, 3 side chain; linkers in the order of their positions; H or OH if unused. Positions of bridges follow the written chain, without caps; N, C: chain ends. Non-standard residues stand in square brackets, D forms with d. Residues, ends and D or L forms follow the SMILES beside them. ξ: configuration not given here. PEG12 = NCCOCCOCCOCCOCCOCCOCCOCCOCCOCCOCCOCCOCCC(=O)O; ξPro(4R-NH2) = O=C(C1C[C@@H](N[*:3])CN1[*:1])[*:2]; Pro(cis-4-Ph) = O=C(O)[C@@H]1C[C@H](c2ccccc2)CN1; Phe(4-Br) = N[C@@H](Cc1ccc(Br)cc1)C(=O)O; Phe(4-Cl) = N[C@@H](Cc1ccc(Cl)cc1)C(=O)O; Bta = N[C@@H](Cc1csc2ccccc12)C(=O)O; Hyp = O=C(O)[C@@H]1C[C@@H](O)CN1; NMeF = CN[C@@H](Cc1ccccc1)C(=O)O; dHyp = O=C(O)[C@H]1C[C@H](O)CN1; NMeNle = CCCC[C@H](NC)C(=O)O; NMeM = CN[C@@H](CCSC)C(=O)O; NMeS = CN[C@@H](CO)C(=O)O; NMeA = CN[C@@H](C)C(=O)O; Dap = NC[C@H](N)C(=O)O; ξAze = O=C(O)C1CCN1; ξC = NC(CS)C(=O)O; Sar = CNCC(=O)O Where only a bound is given, the exact number is not on record here.

Assay [1] deals with T1, LK35.2-hPD-L1 cells / PE-labeled PD-1-Ig (Homo sapiens, UniProt Q9NZQ7).
T1 construct: expressed in transfected cells; host or cells: LK35.2 mouse B cell line
T1 sequence (Q9NZQ7 19-290): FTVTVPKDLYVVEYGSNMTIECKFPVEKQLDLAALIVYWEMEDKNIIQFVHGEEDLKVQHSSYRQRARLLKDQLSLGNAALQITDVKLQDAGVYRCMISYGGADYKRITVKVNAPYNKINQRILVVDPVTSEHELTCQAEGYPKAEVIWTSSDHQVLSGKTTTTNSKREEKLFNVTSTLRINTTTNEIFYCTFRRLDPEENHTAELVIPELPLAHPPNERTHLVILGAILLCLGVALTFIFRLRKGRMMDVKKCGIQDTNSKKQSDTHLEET
The assay can be described thus: LK35.2-hPD-L1 cell binding high-content screening assay. Format: cell-based. The procedure:
LK35.2-hPD-L1 Cell Binding High-Content Screening Assay. Phycoerythrin (PE) was covalently linked to the Ig epitope tag of human PD-1-Ig and fluorescently-labeled PD-1-Ig was used for binding studies with a mouse B cell line (LK35.2) stably over-expressing human PD-L1 (LK35.2-hPD-L1). Briefly, 3×10^3 LK35.2-hPD-L1 cells were seeded into 384 well plates in 20 ul of RPMI supplemented with 10% fetal calf serum and cultured overnight. 125 nl of compound was added to cells, followed by 5 ul of PE-labeled PD-1-Ig (1 nM final), diluted in RPMI supplemented with 10% fetal calf serum, followed by incubation at 37° C. for 1 h. […] Cells were washed 3× in 100 ul of dPBS followed by final addition of 15 ul of dPBS. Data was collected and processed using a Cell Insight NXT High Content Imager and associated software.

The target in another assay is T2, Human PD-L1/PD-1 (Homo sapiens, UniProt Q9NZQ7).
T2 construct: made in house; host or cells: HEK293T
T2 sequence (Q9NZQ7 with tags, fused parts or gaps): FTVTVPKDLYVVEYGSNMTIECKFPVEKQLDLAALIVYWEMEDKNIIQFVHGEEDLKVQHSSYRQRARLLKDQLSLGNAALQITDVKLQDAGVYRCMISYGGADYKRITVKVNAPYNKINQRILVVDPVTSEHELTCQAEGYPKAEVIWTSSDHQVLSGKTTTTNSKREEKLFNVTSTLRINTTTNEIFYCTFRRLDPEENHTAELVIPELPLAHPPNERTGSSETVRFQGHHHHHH
The assay can be described thus: HTRF PD-1-Ig/PD-L1-His binding assay (human PD-L1). The text has this:
The ability of the macrocyclic peptides of the present disclosure to bind to PD-L1 was investigated using a PD-1/PD-L1 Homogenous Time-Resolved Fluorescence (HTRF) binding assay.
Homogenous Time-Resolved Fluorescence (HTRF) Assays of Binding of Soluble PD-1 to Soluble PD-L1. Soluble PD-1 and soluble PD-L1 refers to proteins with carboxyl-end truncations that remove the transmembrane-spanning regions and are fused to heterologous sequences, specifically the Fc portion of the human immunoglobuling G sequence (Ig) or the hexahistidine epitope tag (His). All binding studies were performed in an HTRF assay buffer consisting of dPBS supplemented with 0.1% (w/v) bovine serum albumin and 0.05% (v/v) Tween-20. […] PD-L1 fusion proteins from either human, cynomologous macaques, or mouse were used. HTRF detection was achieved using europium crypate-labeled anti-Ig monoclonal antibody (1 nM final) and allophycocyanin (APC) labeled anti-His monoclonal antibody (20 nM final). Antibodies were diluted in HTRF detection buffer and 5 μl was dispensed on top of binding reaction.

The mark [2] stands for this setting: cell binding assay, cell line not given, cluster symbol, read-out: CBA IC50 cluster.
The mark [3] stands for this setting: Table 8, Compound No. 1 variant macrocyclic peptides, read-out: HTRF Human PD-L1/PD-1 Binding Assay IC50.

Take `CCCC[C@H]1C(=O)N(C)CC(=O)N[C@@H](CC(=O)O)C(=O)N[C@@H](C(C)C)C(=O)N(C)[C@@H](Cc2ccccc2)C(=O)N[C@@H](Cc2ccc(O)cc2)C(=O)N2C[C@@H](O)C[C@@H]2C(=O)N[C@@H](Cc2c[nH]c3ccccc23)C(=O)N[C@@H](Cc2ccc(O)cc2)C(=O)N[C@@H](CC(C)C)C(=O)N[C@H](C(=O)NCC(N)=O)CSCC(=O)N[C@@H](Cc2ccccc2)C(=O)N(C)[C@@H](Cc2ccccc2)C(=O)N1C` [Example 3583] ({CH2CO}-F[NMeF][NMeNle][Sar]DV[NMeF]Y[dHyp]WYLCG-NH2; thioether N-13): in assay [1] (setting [2]), the IC50 was 0.158 to 4.71 nM.
Consider `CCCC[C@H]1C(=O)N(C)CC(=O)N[C@@H](CC(=O)O)C(=O)N[C@@H](C(C)C)C(=O)N(C)[C@@H](Cc2ccccc2)C(=O)N[C@@H](Cc2ccc(O)cc2)C(=O)N(C)CC(=O)N[C@@H](Cc2c[nH]c3ccccc23)C(=O)N[C@@H](Cc2ccc(O)cc2)C(=O)N[C@@H](Cc2ccc(Cl)cc2)C(=O)N[C@H](C(=O)NCC(N)=O)CSCC(=O)N[C@@H](Cc2ccccc2)C(=O)N(C)[C@@H](Cc2ccccc2)C(=O)N1C` [Example 3098] ({CH2CO}-F[NMeF][NMeNle][Sar]DV[NMeF]Y[Sar]WY[Phe(4-Cl)]CG-NH2; thioether N-13), for which the IC50 on Human PD-L1/PD-1 (cluster symbol, read-out: HTRF IC50 cluster) is above 30.5 nM; in assay [1] (cluster symbol, cell line of CBA not given (LK35.2-hPD-L1 or 293T-hPD-L1), read-out: CBA IC50 cluster) it was 4.78 to 72.9 nM.
On to `CCCC[C@H]1C(=O)N[C@@H](CCCNC(=N)N)C(=O)NC(C(=O)NCC(N)=O)CSCC(=O)N[C@@H](Cc2ccc(O)cc2)C(=O)N(C)[C@@H](C)C(=O)N[C@@H](CC(N)=O)C(=O)N2CCC[C@H]2C(=O)N[C@@H](CN)C(=O)N[C@@H](CC(C)C)C(=O)N2CCC[C@H]2C(=O)N[C@@H](Cc2c[nH]c3ccccc23)C(=O)N[C@@H](CO)C(=O)N[C@@H](Cc2c[nH]c3ccccc23)C(=O)N(C)[C@@H](CCSC)C(=O)N1C` (stereo partly shown) [Example 9097] ({CH2CO}-Y[NMeA]NP[Dap]LPWSW[NMeM][NMeNle]R[ξC]G-NH2; thioether N-14), for which, in assay [1] (setting [2]), the IC50 is 4.78 to 72.9 nM.
As to `CCCC[C@H]1C(=O)N(C)[C@@H](CCCC)C(=O)N[C@@H](CCC(=O)O)C(=O)N[C@H](C(=O)NCC(N)=O)CSCC(=O)N[C@@H](Cc2ccc(O)cc2)C(=O)N(C)[C@@H](C)C(=O)N[C@@H](CC(=O)O)C(=O)N2CCC[C@H]2C(=O)N[C@@H](Cc2c[nH]cn2)C(=O)N[C@@H](CCCCN)C(=O)N2C[C@@H](c3ccccc3)C[C@H]2C(=O)N[C@@H](Cc2c[nH]c3ccccc23)C(=O)N[C@@H](CCCCN)C(=O)N[C@@H](Cc2c[nH]c3ccccc23)C(=O)N1C` [Example 13006] ({CH2CO}-Y[NMeA]DPHK[Pro(cis-4-Ph)]WKW[NMeNle][NMeNle]ECG-NH2; thioether N-14), in assay [1] (cell binding assay, cell line not given, value given instead of cluster, read-out: CBA IC50 value), the IC50 came to 1.46 nM.
For the compound `CCCC[C@H]1C(=O)N(C)[C@@H](CCCC)C(=O)N[C@@H](CCCNC(=N)N)C(=O)N[C@H](C(=O)NCC(N)=O)CSCC(=O)N[C@@H](Cc2ccccc2)C(=O)N(C)[C@@H](C)C(=O)N[C@@H](CC(N)=O)C(=O)N2CCC2C(=O)N[C@@H](Cc2cnc[nH]2)C(=O)N[C@@H](CC(C)C)C(=O)N(C)CC(=O)N[C@@H](Cc2c[nH]c3ccccc23)C(=O)N[C@@H](CO)C(=O)N[C@@H](Cc2c[nH]c3ccccc23)C(=O)N1C` (stereo partly shown) [Compound No. 50] ({CH2CO}-F[NMeA]N[ξAze]HL[Sar]WSW[NMeNle][NMeNle]RCG-NH2; thioether N-14), the IC50 at Human PD-L1/PD-1 (setting [3]) amounted to 71 nM.
Turning to `CCCC[C@H]1C(=O)N(C)CC(=O)N[C@@H](CC(=O)O)C(=O)N[C@@H](C(C)C)C(=O)N(C)[C@@H](Cc2ccccc2)C(=O)N[C@@H](Cc2ccc(O)cc2)C(=O)N(C)CC(=O)N[C@@H](Cc2c[nH]c3ccccc23)C(=O)N[C@@H](Cc2ccc(O)cc2)C(=O)N[C@@H](CC(C)C)C(=O)N[C@H](C(=O)NCC(=O)NCCOCCOCCOCCOCCOCCOCCOCCOCCOCCOCCOCCOCCC(N)=O)CSCC(=O)N[C@@H](Cc2ccccc2)C(=O)N(C)[C@@H](Cc2ccccc2)C(=O)N1C` [Compound No. 118] ({CH2CO}-F[NMeF][NMeNle][Sar]DV[NMeF]Y[Sar]WYLCG[PEG12]-NH2; thioether N-13), the IC50 on Human PD-L1/PD-1 (Table 10, Compound No. 116 variant macrocyclic peptides, read-out: HTRF Human PD-L1/PD-1 Binding Assay IC50) was 3 nM.
For `CCCC[C@H]1C(=O)N(C)[C@@H](CCCC)C(=O)N[C@@H](CCCNC(=N)N)C(=O)N[C@H](C(=O)NCC(N)=O)CSCC(=O)N[C@@H](Cc2ccccc2)C(=O)N(C)[C@@H](C)C(=O)N[C@H](CC(N)=O)C(=O)N2CCC[C@H]2C(=O)N[C@@H](Cc2c[nH]cn2)C(=O)N[C@@H](CC(C)C)C(=O)N(C)CC(=O)N[C@@H](Cc2c[nH]c3ccccc23)C(=O)N[C@@H](CO)C(=O)N[C@@H](Cc2c[nH]c3ccccc23)C(=O)N1C` [Compound No. 42] ({CH2CO}-F[NMeA][dN]PHL[Sar]WSW[NMeNle][NMeNle]RCG-NH2; thioether N-14), at Human PD-L1/PD-1 (setting [3]), the IC50 was above 10000 nM.
Regarding `CCCC[C@H]1C(=O)N(C)[C@@H](CCCC)C(=O)N[C@@H](CCCNC(=N)N)C(=O)N[C@H](C(=O)NCC(N)=O)CSCC(=O)N[C@@H](Cc2ccc(Br)cc2)C(=O)N(C)[C@@H](C)C(=O)N[C@@H](CC(N)=O)C(=O)N2CCC[C@H]2C(=O)N[C@@H](Cc2cnc[nH]2)C(=O)N[C@@H](CC(C)C)C(=O)N(C)CC(=O)N[C@@H](Cc2c[nH]c3ccccc23)C(=O)N[C@@H](CO)C(=O)N[C@@H](Cc2c[nH]c3ccccc23)C(=O)N1C` [Compound No. 34] ({CH2CO}-[Phe(4-Br)][NMeA]NPHL[Sar]WSW[NMeNle][NMeNle]RCG-NH2; thioether N-14), the IC50 at Human PD-L1/PD-1 (setting [3]) amounted to 4 nM.
Consider `CCCC[C@H]1C(=O)N(C)CC(=O)N[C@@H](CC(=O)O)C(=O)N[C@@H](C(C)C)C(=O)N(C)[C@@H](Cc2ccccc2)C(=O)N[C@@H](C)C(=O)N(C)CC(=O)N[C@@H](Cc2c[nH]c3ccccc23)C(=O)N[C@@H](Cc2ccc(O)cc2)C(=O)N[C@@H](CC(C)C)C(=O)N[C@H](C(=O)NCC(N)=O)CSCC(=O)N[C@@H](Cc2ccccc2)C(=O)N(C)[C@@H](Cc2ccccc2)C(=O)N1C` [Compound No. 83] (HELM PEPTIDE1{[O=C(C[*:3])[*:2]].F.[meF].[CCCC[C@@H](C(=O)[*:2])N(C)[*:1]].[Sar].D.V.[meF].A.[Sar].W.Y.L.C.G.[am]}$PEPTIDE1,PEPTIDE1,1:R3-14:R3$$$V2.0), for which, at Human PD-L1/PD-1 (Table 9, Compound No. 71 variant macrocyclic peptides, read-out: HTRF Human PD-L1/PD-1 Binding Assay IC50), the IC50 is 35 nM.
Turning to `CCCC[C@H]1C(=O)N(C)[C@@H](CCCC)C(=O)N[C@@H](CCCNC(=N)N)C(=O)N[C@H](C(=O)NCC(N)=O)CSCC(=O)N[C@@H](Cc2ccccc2)C(=O)N(C)[C@@H](C)C(=O)N[C@@H](CC(N)=O)C(=O)N2C[C@H](N)CC2C(=O)N[C@@H](Cc2cnc[nH]2)C(=O)N[C@@H](CC(C)C)C(=O)N(C)CC(=O)N[C@@H](Cc2c[nH]c3ccccc23)C(=O)N[C@@H](CO)C(=O)N[C@@H](Cc2c[nH]c3ccccc23)C(=O)N1C` (stereo partly drawn) [Compound No. 48] ({CH2CO}-F[NMeA]N[ξPro(4R-NH2)]HL[Sar]WSW[NMeNle][NMeNle]RCG-NH2; thioether N-14), the IC50 on Human PD-L1/PD-1 (setting [3]) came out at 40 nM.
With `CCCC[C@H]1C(=O)N(C)[C@@H](CCCC)C(=O)N[C@@H](CCCNC(=N)N)C(=O)N[C@H](C(=O)NCC(N)=O)CSCC(=O)N[C@@H](Cc2ccc(Cl)cc2)C(=O)N(C)[C@@H](C)C(=O)N[C@@H](CC(N)=O)C(=O)N2CCC[C@H]2C(=O)N[C@@H](Cc2cnc[nH]2)C(=O)N[C@@H](CC(C)C)C(=O)N2C[C@H](O)C[C@H]2C(=O)N[C@@H](Cc2c[nH]c3ccccc23)C(=O)N[C@@H](CO)C(=O)N[C@@H](Cc2csc3ccccc23)C(=O)N1C` [Example 1125] ({CH2CO}-[Phe(4-Cl)][NMeA]NPHL[Hyp]WS[Bta][NMeNle][NMeNle]RCG-NH2; thioether N-14), the IC50 at Human PD-L1/PD-1 (read-out: HTRF IC50 value) worked out at 5.05 nM.
As to `CCCC[C@H]1C(=O)N(C)[C@@H](CCCC)C(=O)N[C@@H](CCCNC(=N)N)C(=O)N[C@H](C(=O)NCC(N)=O)CSCC(=O)N[C@@H](Cc2ccccc2)C(=O)N(C)[C@@H](C)C(=O)N[C@@H](CC(N)=O)C(=O)N2CCC[C@H]2C(=O)N[C@@H](Cc2cnc[nH]2)C(=O)N[C@@H](CC(C)C)C(=O)N(C)[C@@H](CO)C(=O)N[C@@H](Cc2c[nH]c3ccccc23)C(=O)N[C@@H](CO)C(=O)N[C@@H](Cc2c[nH]c3ccccc23)C(=O)N1C` [Compound No. 56] ({CH2CO}-F[NMeA]NPHL[NMeS]WSW[NMeNle][NMeNle]RCG-NH2; thioether N-14), on Human PD-L1/PD-1 (setting [3]), the IC50 came to 13 nM.
